Assay results taken from PubChem BioAssay (NCI).
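Briefly, cells in 96-well plates were exposed to five compound concentrations for 48 h, and endpoints were estimated by linear interpolation. GI50 is the concentration that inhibits growth by half. At the TGI there is no net growth.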

Legend:
Test in all cases: NCI tumour cell line growth inhibition, 48 h
A498 renal = system: A498 renal
DU-145 prostate = system: DU-145 prostate
HCC-2998 colon = system: HCC-2998 colon
IGROV1 ovarian = system: IGROV1 ovarian
M14 melanoma = system: M14 melanoma
OVCAR-3 ovarian = system: OVCAR-3 ovarian
OVCAR-5 ovarian = system: OVCAR-5 ovarian
OVCAR-8 ovarian = system: OVCAR-8 ovarian
PC-3 prostate = system: PC-3 prostate
SF-295 CNS = system: SF-295 CNS

Row | SMILES | TGI (A498 renal) [µM] | GI50 (DU-145 prostate) [µM] | TGI (DU-145 prostate) [µM] | GI50 (HCC-2998 colon) [µM] | TGI (HCC-2998 colon) [µM] | GI50 (IGROV1 ovarian) [µM] | TGI (IGROV1 ovarian) [µM] | GI50 (M14 melanoma) [µM] | TGI (M14 melanoma) [µM] | GI50 (OVCAR-3 ovarian) [µM] | TGI (OVCAR-3 ovarian) [µM] | GI50 (OVCAR-5 ovarian) [µM] | TGI (OVCAR-5 ovarian) [µM] | GI50 (OVCAR-8 ovarian) [µM] | TGI (OVCAR-8 ovarian) [µM] | GI50 (PC-3 prostate) [µM] | TGI (PC-3 prostate) [µM] | GI50 (SF-295 CNS) [µM] | TGI (SF-295 CNS) [µM] | GI50 (A498 renal) [µM]
1 | Cc1noc(C)c1-c1ccc2[nH]c(=O)n3c2c1OC[C@@H]3c1ccccn1 | 6.25 | > 64.3 | > 100 | 2 | > 100 | 0.965 | > 100 | 0.803 | > 100 | 3.84 | > 100 | 5.87 | > 100 | 11 | > 100 | 2.88 | > 100 | 1.84 | > 100 | 
2 | Cc1c(C(=O)NN)nnn1-c1ccnc2c(C(F)(F)F)cccc12 | > 100 | > 100 | > 100 | > 100 | > 100 | > 100 | > 100 | > 100 | > 100 | > 100 | > 100 | > 100 | > 100 | > 100 | > 100 | > 100 | > 100 | > 100 | > 100 | > 100
3 | CCCSc1cc(Cl)nc(N)n1 | > 100 | > 100 | > 100 | > 100 | > 100 | > 100 | > 100 | > 100 | > 100 | > 100 | > 100 | > 100 | > 100 | > 100 | > 100 | > 100 | > 100 | > 100 | > 100 | > 100
4 | COc1cc(-c2cn(C)c(=O)c(C)c2C)cc(OC)c1CN1CC[C@H](N2CCN(c3ccc(N[C@H]4CCC(=O)NC4=O)cc3F)CC2)C(F)(F)C1 | 27.2 | 27.6 | > 100 | 12.9 | 25.8 | 13.8 | 34.3 | 12.2 | 27.7 | 13.4 | 27.2 | 15.8 | 31.5 | 11.2 | 25.7 | 11 | 47.1 | 11.9 | 25.5 | 13.8
5 | C[C@H]1CCC/C=C/[C@@H]2C[C@H](N)C[C@H]2[C@H](O)/C=C/C(=O)O1 | > 100 | > 100 | > 100 | > 100 | > 100 | > 100 | > 100 | > 100 | > 100 | > 100 | > 100 | > 100 | > 100 | > 100 | > 100 | > 100 | > 100 | > 100 | > 100 | 67.9
6 | CC1=C(C)C(=O)O[C@@H]([C@](C)(O)[C@]2(O)CC[C@@]3(O)[C@@H]4C[C@H]5O[C@]56CC=CC(=O)[C@]6(C)[C@H]4CC[C@]23C)C1 | 0.784 | 0.519 | 10.9 | 0.772 | 2.17 | 0.283 | 2.59 | 0.101 | 1.67 | 0.0667 | 0.405 | 0.299 | 2.51 | 0.231 | 4.86 | 0.247 | 5.97 | 0.62 | 14.7 | 0.218
7 | CCCCCCNc1nc(NCCCCCC)c2[nH]c(NCCCCCC)nc2n1 | 10.5 | 12.8 | 25.4 | 12.5 | 26.8 | 19 | > 53.2 | 14.1 | 27.9 | 2.1 | 9.44 | 9.31 | 24.7 | 9.96 | 30.8 | 9.14 | 28.9 | 12.8 | 31.3 | 1.2
8 | CS(=O)(=O)Nc1ccc(-c2ccc3c(NC(=O)C4CC4)n[nH]c3c2)cc1 | > 25 | > 23.8 | > 25 | > 25 | > 25 | > 25 | > 25 | 24.9 | > 25 | > 21.2 | > 25 | > 25 | > 25 | > 25 | > 25 | > 25 | > 25 | > 25 | > 25 | > 25
9 | CN1CCN(Cc2ccc(NC(=O)c3ccc(C(C)(C)C)c(C#Cc4cnc5cccnn45)c3)cc2C(F)(F)F)CC1 | 23.4 | 1.89 | 3.39 | 1.83 | 3.38 | 2.55 | 6.99 | 1.8 | 3.44 | 3.55 | 12.2 | 2.71 | 7.18 | 2.58 | 5.61 | 1.89 | 4.12 | 1.97 | 3.96 | 7.18
10 | Nc1ccc(SC23CC4CC(CC(C4)C2)C3)cc1 | > 100 |  | > 100 |  | > 100 |  | > 100 |  | > 100 |  | > 100 |  | > 100 |  | > 100 |  | > 100 |  | > 100 | 
11 | C=C(C)[C@@H]1CC[C@@]2(C(=O)O)CC[C@]3(C)C(CCC4[C@@]5(C)CCC(OS(=O)(=O)c6ccccc6)C(C)(C)C5CC[C@]43C)C12 (some centres undefined) | 20.6 | 6.5 | 20.8 | 2.28 | 10.5 | 10.4 | 31.2 | 11.2 | 25.1 | 3.95 | 14.9 | 9.44 | 28.7 | 5.8 | 88.7 | 1.5 | 35.8 | 1.93 | 11.8 | 4.68
12 | NCCN1CCN(c2nccc(-c3ccc4ccccc4c3)n2)CC1 | 3.3 | 1.85 | 3.42 | 1.74 | 3.46 | 1.97 | 4.12 | 1.89 | 3.54 | 2.36 | 5.45 | 1.85 | 4.04 | 2.25 | 5.6 | 1.86 | 4.36 | 1.68 | 3.34 | 1.59
13 | CC(C)(C)c1nc2c(o1)C(=Nc1ccc(F)cc1)c1ccccc1C2=O | 50.9 |  | 29.4 |  | 20.5 |  | > 66.7 |  | 9.35 |  | 7.62 |  | 34.3 |  | > 61.2 |  | > 100 |  | 19.6 | 
